Measurements from PubChem BioAssay AID1845212 (Molecular Pharmacology Branch, DTP, NCI, 2023).
pIC50: −log10 of the molar value.

Tested on: NCI-H719 tumor spheroids, viability
Assay: Anticancer human tumor NCI-H719 cell line growth inhibition;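 note: spheroids exposed to compounds for seven days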;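 for viability, T/C: percent viability relative to DMSO vehicle control as 100%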
Details: spheroids with HUVEC and MSC; for pIC50: curve of first compound; for viability, T/C: stronger effect = lower value
Source text: Multicellular complex tumor spheroid response to DNA repair inhibitors in combination with DNA-damaging drugs
This study explores the anticancer activities of DNA-damaging drugs and inhibitors of DNA damage repair, both as single agents and in combinations. Complex tumor spheroids comprised of malignant cells, endothelial cells and mesenchymal stem cells served as an in vitro model for human solid tumors. This model system incorporates physiologically relevant features and patient-derived or established malignant cell lines with clinically relevant genetic alterations from many tumor types. Twenty-six patient-derived or established malignant cell lines were evaluated representing sarcoma, melanoma, small cell lung cancer (SCLC), non-small cell lung cancer (NSCLC), as well as bladder, ovarian and pancreatic cancers. The concentration ranges selected for each drug and investigational agent were based upon clinically achievable concentrations if the clinical Cmax of the agent was known.
Compounds. The drugs and compounds olaparib (NSC753686), talazoparib (NSC767125), berzosertib (NSC777718), elimusertib (NSC800525), nedisertib (NSC802822), VX-984 (NSC792969), AZD-1390 (NSC803789), temozolomide (NSC362856), topotecan (NSC609699), trabectedin (NSC813783), staurosporine (NSC755774), and gemcitabine (NSC613327) were obtained from the National Cancer Institute (NCI) Developmental Therapeutics Program Chemical Repository. The FDA-approved anticancer drug set is available from the Developmental Therapeutics Program at https://dtp.cancer.gov/organization/dscb/obtaining/available_plates.htm. […] The stock solutions were prepared in dimethyl sulfoxide (DMSO, Sigma-Aldrich, St. Louis, MO, cat. D2650) at 400-fold the tested concentration and stored at -70 degrees C. Prior to their use, the stock solutions were diluted in fresh medium and the final DMSO concentration in the assay was 0.25% (v/v). All drugs and investigational agents were tested over a range starting from a high concentration at or near the clinical Cmax and decreasing in half-log increments. If the clinical Cmax for an agent had not been determined, the highest concentration tested was 10 microM.
Cell Lines. The patient-derived cancer cell (PDC) lines: 156681-154-R-J1-PDC, 283228-195-R-J1-PDC, 287954-098-R-J1-PDC, 292921-168-R-J2-PDC, 349418-098-R-PDC, 425362-245-T-J1-PDC, 556581-035-R-J1-PDC, and BL0293-F563-PDC were received from the NCI Patient-Derived Models Repository (PDMR, https://pdmr.cancer.gov). The established cell lines HS-SY-2 (RRID:CVCL_8719), MPNST, and SYO-1 (RRID:CVCL_7146) were obtained from the Sloan Kettering Institute. The alveolar soft parts sarcoma cell line ASPS-1 (RRID:CVCL_S738) was established at the NCI and grown from internal seed stocks. The following established cell lines were purchased from the American Type Culture Collection (ATCC, Manassas, VA): G-401 (ATCC, cat. CRL-1441, RRID:CVCL_0270), SW982 (ATCC, cat. HTB-93, RRID:CVCL_1734), VA-ES-BJ (ATCC, cat. CRL-2138, RRID:CVCL_1785), NCI-H719 (ATCC, cat. CRL-5837, RRID:CVCL_1582), NCI-H196 (ATCC, cat. CRL-5823, RRID:CVCL_1509), NCI-H841 (ATCC, cat. CRL-5845, RRID:CVCL_1595), NCI-H1618 (ATCC, cat. CRL-5879, RRID:CVCL_1480), NCI-H1876 (ATCC, cat. CRL-5902, RRID:CVCL_1503), DMS 114 (ATCC, cat. CRL-2066; RRID:CVCL_1174), NCI-H211 (ATCC, cat. CRL-5824; RRID:CVCL_1529), and SW 1271 (ATCC, cat. CRL-2177, RRID:CVCL_1716). The small cell lung cancer cell line COR-L88 was purchased from Sigma-Aldrich (cat. 92031917-1VL, RRID:CVCL_1141). The non-small cell lung cancer cell lines NCI-H226 (RRID:CVCL_1544) and NCI-H322M (RRID:CVCL_1557) were established at the NCI and grown from internal seed stocks. Pooled donor human umbilical vein endothelial cells (HUVEC, Lonza, cat. CC-2519) and human mesenchymal stem cells (hMSC, Lonza, cat. PT-2501) were purchased from Lonza (Walkersville, MD).
Cell Culture. All cells were maintained in an incubator at 37 degrees C and 5% CO2 with 95% humidity. […]

[1] = second compound 0.003 µM, first compound 0.0316 µM
[2] = second compound 0.003 µM, first compound 0.1 µM
[3] = second compound 0.003 µM, first compound 0.316 µM
[4] = second compound 0.003 µM, first compound 1 µM
[5] = second compound 0.003 µM, first compound 3.16 µM
[6] = second compound 0.003 µM, first compound 10 µM

`COc1cc(C)[nH]c(=O)c1CN1CCc2c(Cl)cc(C(OC)C3COC3)c(Cl)c2C1=O` (stereo not given) + CC[C@@]1(O)C(=O)OCc2c1cc1n(c2=O)Cc2cc3c(CN(C)C)c(O)ccc3nc2-1 gave a pIC50 (second compound 0.003 µM) of less than 5.00, a pIC50 (second compound 0.00949 µM) greater than 7.50 and a pIC50 (second compound 0.03 µM) greater than 7.50. It also gave a pIC50 (second compound 0.0949 µM) greater than 7.50, a pIC50 (second compound 0.3 µM) greater than 7.50 and a viability, T/C [1] of 69.7%. The viability, T/C [2] was 57.6%, the viability, T/C [3] was 74.2% and the viability, T/C [4] was 65%. It also gave a viability, T/C [5] of 77%, a viability, T/C [6] of 69.1% and a viability, T/C (second compound 0.00949 µM, first compound 0.0316 µM) of 12.2%. For the same compound, the viability, T/C (second compound 0.00949 µM, first compound 0.1 µM) was 9.34%, the viability, T/C (second compound 0.00949 µM, first compound 0.316 µM) was 9.67% and the viability, T/C (second compound 0.00949 µM, first compound 1 µM) was 10.4%. The viability, T/C (second compound 0.00949 µM, first compound 3.16 µM) was 7.95%, the viability, T/C (second compound 0.00949 µM, first compound 10 µM) was 7.67% and the viability, T/C (second compound 0.03 µM, first compound 0.0316 µM) was 6.93%. The viability, T/C (second compound 0.03 µM, first compound 0.1 µM) was 8.47%, the viability, T/C (second compound 0.03 µM, first compound 0.316 µM) was 6.68% and the viability, T/C (second compound 0.03 µM, first compound 1 µM) was 8.32%. The viability, T/C (second compound 0.03 µM, first compound 3.16 µM) was 8.79%, the viability, T/C (second compound 0.03 µM, first compound 10 µM) was 7.28% and the viability, T/C (second compound 0.0949 µM, first compound 0.0316 µM) was 8.78%. It also gave a viability, T/C (second compound 0.0949 µM, first compound 0.1 µM) of 7.8%, a viability, T/C (second compound 0.0949 µM, first compound 0.316 µM) of 7.84% and a viability, T/C (second compound 0.0949 µM, first compound 1 µM) of 8.96%. For the same compound, the viability, T/C (second compound 0.0949 µM, first compound 3.16 µM) was 8.75%, the viability, T/C (second compound 0.0949 µM, first compound 10 µM) was 8.8% and the viability, T/C (second compound 0.3 µM, first compound 0.0316 µM) was 7.71%. It also gave a viability, T/C (second compound 0.3 µM, first compound 0.1 µM) of 9.03%, a viability, T/C (second compound 0.3 µM, first compound 0.316 µM) of 8.64% and a viability, T/C (second compound 0.3 µM, first compound 1 µM) of 9.67%. For the same compound, the viability, T/C (second compound 0.3 µM, first compound 3.16 µM) was 8.76% and the viability, T/C (second compound 0.3 µM, first compound 10 µM) was 7.22%.
For `[2H]c1nc(C)nc([2H])c1-c1cc(NC[C@@H](C)c2cccc3c(C(=O)NC)ccnc23)ncn1` + COc1cc2c(cc1O)CCNC21CSC2c3c(OC(C)=O)c(C)c4c(c3C(COC1=O)N1C(O)C3Cc5cc(C)c(OC)c(O)c5C(C21)N3C)OCO4, the pIC50 (second compound 30 pM) was less than 5.00, the pIC50 (second compound 94.9 pM) was greater than 7.50 and the pIC50 (second compound 0.0003 µM) was greater than 7.50. For the same compound, the pIC50 (second compound 0.000949 µM) was greater than 7.50, the pIC50 (second compound 0.003 µM) was greater than 7.50 and the viability, T/C (second compound 30 pM, first compound 0.0316 µM) was 89.5%. For the same compound, the viability, T/C (second compound 30 pM, first compound 0.1 µM) was 82.5%, the viability, T/C (second compound 30 pM, first compound 0.316 µM) was 71.9% and the viability, T/C (second compound 30 pM, first compound 1 µM) was 66.6%. It also gave a viability, T/C (second compound 30 pM, first compound 3.16 µM) of 76.8%, a viability, T/C (second compound 30 pM, first compound 10 µM) of 79.7% and a viability, T/C (second compound 94.9 pM, first compound 0.0316 µM) of 20.4%. It also gave a viability, T/C (second compound 94.9 pM, first compound 0.1 µM) of 32.3%, a viability, T/C (second compound 94.9 pM, first compound 0.316 µM) of 38.6% and a viability, T/C (second compound 94.9 pM, first compound 1 µM) of 28.9%. It also gave a viability, T/C (second compound 94.9 pM, first compound 3.16 µM) of 22.1%, a viability, T/C (second compound 94.9 pM, first compound 10 µM) of 29.2% and a viability, T/C (second compound 0.0003 µM, first compound 0.0316 µM) of 6.45%. For the same compound, the viability, T/C (second compound 0.0003 µM, first compound 0.1 µM) was 6.02%, the viability, T/C (second compound 0.0003 µM, first compound 0.316 µM) was 6.77% and the viability, T/C (second compound 0.0003 µM, first compound 1 µM) was 8.36%. For the same compound, the viability, T/C (second compound 0.0003 µM, first compound 3.16 µM) was 6.88%, the viability, T/C (second compound 0.0003 µM, first compound 10 µM) was 7.14% and the viability, T/C (second compound 0.000949 µM, first compound 0.0316 µM) was 7.69%. It also gave a viability, T/C (second compound 0.000949 µM, first compound 0.1 µM) of 7.59%, a viability, T/C (second compound 0.000949 µM, first compound 0.316 µM) of 6.74% and a viability, T/C (second compound 0.000949 µM, first compound 1 µM) of 6.63%. The viability, T/C (second compound 0.000949 µM, first compound 3.16 µM) was 6.53%, the viability, T/C (second compound 0.000949 µM, first compound 10 µM) was 7.49% and the viability, T/C [1] was 0.31%. It also gave a viability, T/C [2] of 0.58%, a viability, T/C [3] of 0.16% and a viability, T/C [4] of 0.86%. It also gave a viability, T/C [5] of 0.13% and a viability, T/C [6] of 0.24%.
